Source: US7166622B2, “Substituted phenylsulfonamide inhibitors of beta amyloid production” (Wyeth, priority 2002, dated 2007)
“And” between values parts separate entries of the source, which are not always exact repeats. Identical values can stand only once.

How the values were obtained:
[1] = system: beta amyloid production; assay: Repressor Release Assay (RRA); type: cell-based; details: for fold induction at 10 µg/mL / APPI Fold Increase / APPI % of Example #98: Conc 10 μg/ml; for fold induction at 10 µg/mL / fold induction at 20 µg/mL / APPI Fold Increase: luciferase activity over diluent control; for fold induction at 10 µg/mL / fold induction at 20 µg/mL: read-out: APPI Fold Increase; for fold induction at 20 µg/mL: Conc 20 μg/ml; for APPI % of Example #98: relative to Example 98
Method in brief: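 CHO-K1 cells transiently co-transfected with pRSVO-luc and an APP-lacI construct, replated, then treated in duplicate for 36-48 h at 37 °C, 5% CO2. Compounds diluted in 25 mM Hepes, with Hepes/1% DMSO as diluent control. Luciferase read-out in relative light units; toxicity scored 1 non-toxic, 0 toxic.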

[2] = system: CHO-K1 cells; assay: Toxicity in RRA (loss of luciferase signal); details: toxicity = loss of signal (<0.75 fold increase)
Description: The beta amyloid inhibitory activity of the compounds of the present invention was determined using the Repressor Release Assay (RRA).
“Fold Increase” refers to the amount of luciferase activity (measured in relative light units) over diluent control. “SEM” refers to the standard error of the mean for fold increase.

| Compound | fold induction at 10 µg/mL [1] | fold induction at 20 µg/mL [1] | (%)APPI Toxicity ([2]; Conc 10 μg/ml) | (%)APPI Toxicity ([2]; Conc 20 μg/ml) | APPI Fold Increase [1] | APPI % of Example #98 [1] |
| --- | --- | --- | --- | --- | --- | --- |
| C=C(C)C(O)(C(=C)C)[C@@H](NS(=O)(=O)c1ccc(Br)cc1)[C@@H](C)CC [Example 219, 4-bromo-N-{(1S)-2-hydroxy-2-isopropenyl-3-methyl-1-[(1S)-1-methylpropyl]-3-butenyl}benzenesulfonamide] | 1.8 | 2.8 | 1 (1=non-toxic) | 1 (1=non-toxic) | – | – |
| C/C=C(\C)C(O)(/C(C)=C/C)[C@@H](NS(=O)(=O)c1ccc(Br)cc1)[C@@H](C)CC (stereo partly drawn) [Example 220, 4-bromo-N-{(1S,3E)-2-hydroxy-3-methyl-2-[(1E)-1-methyl-1-propenyl]-1-[(1S)-1-methylpropyl]-3-pentenyl}benzenesulfonamide] | 3.29 | – | 1 (1=non-toxic) | – | – | – |
| C=CCCC(O)(CCC=C)[C@@H](NS(=O)(=O)c1ccc(Br)cc1)[C@@H](C)CC [Example 221, 4-bromo-N-{(1S)-2-(3-butenyl)-2-hydroxy-1-[(1S)-1-methylpropyl]-5-hexenyl}benzenesulfonamide] | 5.73 | – | 1 (1=non-toxic) | – | – | – |
| CC[C@H](C)[C@H](NS(=O)(=O)c1ccc(Br)cc1)C(O)(c1cccc2ccccc12)c1cccc2ccccc12 [Example 222, 4-bromo-N-((1S,2S)-1-{hydroxy[di(1-naphthyl)]methyl}-2-methylbutyl) benzenesulfonamide] | – | – | 1 (1=non-toxic) | – | 1.59 fold | 54.46% |
| CC[C@H](C)[C@H](NS(=O)(=O)c1ccc(Cl)cc1)C(C)(C)O [Example 223, 4-chloro-N-[(1S,2S)-1-(1-hydroxy-1-methylethyl)-2-methylbutyl]benzenesulfonamide] | 2.33 | – | 1 (1=non-toxic) | – | – | – |
| CCCCCCC(O)(CCCCCC)[C@@H](NS(=O)(=O)c1ccc(Cl)cc1)[C@@H](C)CC [Example 224, 4-chloro-N-{(1S)-2-hexyl-2-hydroxy-1-[(1S)-1-methylpropyl]octyl}benzenesulfonamide] | 2.22 | – | 1 (1=non-toxic) | – | – | – |
| CCCCC(O)(CCCC)[C@@H](NS(=O)(=O)c1ccc(Cl)cc1)[C@@H](C)CC [Example 225, N-{(1S)-2-butyl-2-hydroxy-1-[(1S)-1-methylpropyl]hexyl}-4-chlorobenzenesulfonamide] | 6.82 | – | 1 (1=non-toxic) | – | – | – |
| CC[C@H](C)[C@H](NS(=O)(=O)c1ccc(Cl)cc1)C(O)(CC(C)C)CC(C)C [Example 226, 4-chloro-N-{(1S)-2-hydroxy-2-isobutyl-4-methyl-1-[(1S)-1-methylpropyl]pentyl}benzenesulfonamide] | 4.6 | – | 1 (1=non-toxic) | – | – | – |
| CC[C@H](C)[C@H](NS(=O)(=O)c1ccc(Cl)cc1)C(O)(c1ccccc1)c1ccccc1 [Example 227, 4-chloro-N-{(1S,2S)-1-[hydroxy(diphenyl)methyl]-2-methylbutyl}benzenesulfonamide] | 1.65 | – | 1 (1=non-toxic) | – | – | – |
| C=CCC(O)(CC=C)[C@@H](NS(=O)(=O)c1ccc(Cl)cc1)[C@@H](C)CC [Example 228, N-{(1S)-2-allyl-2-hydroxy-1-[(1S)-1-methylpropyl]-4-pentenyl}-4-chloro benzenesulfonamide] | – | – | 1 (1=non-toxic) | – | 1.56 fold | 71.57% |
| CC[C@H](C)[C@H](NS(=O)(=O)c1ccc(Cl)cc1)C(O)(CC)CC [Example 229, 4-chloro-N-{(1S)-2-ethyl-2-hydroxy-1-[(1S)-1-methylpropyl]butyl}benzenesulfonamide] | 1.52 | – | 1 (1=non-toxic) | – | – | – |
| C=C(C)C(O)(C(=C)C)[C@@H](NS(=O)(=O)c1ccc(Cl)cc1)[C@@H](C)CC [Example 230, 4-chloro-N-{(1S)-2-hydroxy-2-isopropenyl-3-methyl-1-[(1S)-1-methylpropyl]-3-butenyl}benzenesulfonamide] | 1.75 | 1.9 | 1 (1=non-toxic) | 1 (1=non-toxic) | – | – |
| CC[C@H](C)[C@H](NS(=O)(=O)c1ccc(Cl)cc1)C(O)(c1ccc(OC)cc1)c1ccc(OC)cc1 [Example 231, 4-chloro-N-((1S,2 S)-1-{hydroxy [bis(4-methoxyphenyl)]methyl}-2-methylbutyl)benzenesulfonamide] | 2.49 | – | 1 (1=non-toxic) | – | – | – |
| C/C=C(\C)C(O)(/C(C)=C/C)[C@@H](NS(=O)(=O)c1ccc(Cl)cc1)[C@@H](C)CC (stereo partly drawn) [Example 232, 4-chloro-N-{(1S,3E)-2-hydroxy-3-methyl-2-[(1E)-1-methyl-1-propenyl]-1-[(1S)-1-methylpropyl]-3-pentenyl}benzenesulfonamide] | 1.94 | 4.2 | 1 (1=non-toxic) | 1 (1=non-toxic) | – | – |
| C=CCCC(O)(CCC=C)[C@@H](NS(=O)(=O)c1ccc(Cl)cc1)[C@@H](C)CC [Example 233, N-{(1S)-2-(3-butenyl)-2-hydroxy-1-[(1S)-1-methylpropyl]-5-hexenyl}-4-chlorobenzenesulfonamide] | 6.67 | – | 1 (1=non-toxic) | – | – | – |
| CC[C@H](C)[C@H](NS(=O)(=O)c1ccc(Cl)cc1)C(O)(c1cccc2ccccc12)c1cccc2ccccc12 [Example 234, 4-chloro-N-((1S,2S)-1-{hydroxy[di(1-naphthyl)]methyl}-2-methylbutyl) benzenesulfonamide] | – | – | 1 (1=non-toxic) | – | 2.9 fold and 1.6 fold | – |
| CC[C@H](C)[C@H](NS(=O)(=O)c1ccc(F)cc1)C(C)(C)O [Example 235, 4-fluoro-N-[(1S,2S)-1-(1-hydroxy-1-methylethyl)-2-methylbutyl]benzenesulfonamide] | 1.88 | – | 1 (1=non-toxic) | – | – | – |
| CCCCCC(O)(CCCCC)[C@@H](NS(=O)(=O)c1ccc(F)cc1)[C@@H](C)CC [Example 237, 4-fluoro-N-{(1S)-2-hydroxy-1-[(1S)-1-methylpropyl]-2-pentylheptyl}benzenesulfonamide] | 6.05 | – | 1 (1=non-toxic) | – | – | – |
| CCCCC(O)(CCCC)[C@@H](NS(=O)(=O)c1ccc(F)cc1)[C@@H](C)CC [Example 238, N-{(1S)-2-butyl-2-hydroxy-1-[(1S)-1-methylpropyl]hexyl}-4-fluorobenzenesulfonamide] | 4.5 | – | 1 (1=non-toxic) | – | – | – |
| CC[C@H](C)[C@H](NS(=O)(=O)c1ccc(F)cc1)C(O)(C(C)C)C(C)C [Example 239, 4-fluoro-N-{(1S)-2-hydroxy-2-isopropyl-3-methyl-1-[(1S)-1-methylpropyl]butyl}benzenesulfonamide] | 1.54 | – | 1 (1=non-toxic) | – | – | – |
| CC[C@H](C)[C@H](NS(=O)(=O)c1ccc(F)cc1)C(O)(CC(C)C)CC(C)C [Example 240, 4-fluoro-N-{(1S)-2-hydroxy-2-isobutyl-4-methyl-1-[(1S)-1-methylpropyl]pentyl}benzenesulfonamide] | 3.82 | – | 1 (1=non-toxic) | – | – | – |
| C=CCC(O)(CC=C)[C@@H](NS(=O)(=O)c1ccc(F)cc1)[C@@H](C)CC [Example 241, N-{(1S)-2-allyl-2-hydroxy-1-[(1S)-1-methylpropyl]-4-pentenyl}-4-fluoro benzenesulfonamide] | – | – | 1 (1=non-toxic) | – | 1.58 fold | 72.82% |
| CC[C@H](C)[C@H](NS(=O)(=O)c1ccc(F)cc1)C(O)(CC)CC [Example 242, N-{(1S)-2-ethyl-2-hydroxy-1-[(1S)-1-methylpropyl]butyl}-4-fluorobenzenesulfonamide] | 1.6 | – | 1 (1=non-toxic) | – | – | – |
| C=C(C)C(O)(C(=C)C)[C@@H](NS(=O)(=O)c1ccc(F)cc1)[C@@H](C)CC [Example 243, 4-fluoro-N-{(1S)-2-hydroxy-2-isopropenyl-3-methyl-1-[(1S)-1-methylpropyl]-3-butenyl}benzenesulfonamide] | 1.7 | – | 1 (1=non-toxic) | – | – | – |
| CC[C@H](C)[C@H](NS(=O)(=O)c1ccc(F)cc1)C(O)(c1ccc(OC)cc1)c1ccc(OC)cc1 [Example 244, 4-fluoro-N-((1S,2S)-1-{hydroxy[bis(4-methoxyphenyl)]methyl}-2-methylbutyl) benzenesulfonamide] | – | – | 1 (1=non-toxic) | – | 1.51 fold | 69.29% |
| C/C=C(\C)C(O)(/C(C)=C/C)[C@@H](NS(=O)(=O)c1ccc(F)cc1)[C@@H](C)CC (stereo partly drawn) [Example 245, 4-fluoro-N-{(1S,3E)-2-hydroxy-3-methyl-2-[(1E)-1-methyl-1-propenyl]-1-[(1S)-1-methylpropyl]-3-pentenyl}benzenesulfonamide] | 2.05 | 3.5 | 1 (1=non-toxic) | 1 (1=non-toxic) | – | – |
| C=CCCC(O)(CCC=C)[C@@H](NS(=O)(=O)c1ccc(F)cc1)[C@@H](C)CC [Example 246, N-{(1S)-2-(3-butenyl)-2-hydroxy-1-[(1S)-1-methylpropyl]-5-hexenyl}-4-fluorobenzenesulfonamide] | 2.42 | 1.9 | 1 (1=non-toxic) | 1 (1=non-toxic) | – | – |
| CC[C@H](C)[C@H](NS(=O)(=O)c1ccc(F)cc1)C(O)(c1ccc(N(C)C)cc1)c1ccc(N(C)C)cc1 [Example 247, N-{(1S,2S)-1-[bis[4-(dimethylamino)phenyl](hydroxy)methyl]-2-methylbutyl}-4-fluorobenzenesulfonamide] | 1.54 | – | 1 (1=non-toxic) | – | – | – |
